Reference: patent EP2607478A1, “Phenanthroline treated MSC” (Universiteit Twente, priority 2011, dated 2013)

Tested on: MSCs
Test: Whole genome expression analysis (Illumina microarray) of treated MSCs
Type: cell-based, Human
Procedure: MSCs were seeded in T25 flasks at 5000 cells/cm^2 and allowed to attach overnight in proliferation medium. […] After 48 hours, RNA was isolated as described above. From 500 ng of RNA, cRNA was synthesized using the Illumina TotalPrep RNA amplification Kit (Ambion), according to the manufacturer's protocol and the quality of RNA and cRNA was verified on a Bioanalyzer 2100 (Agilent). Microarrays were performed using Illumina HT-12 v4 expression Beadchips, according to the manufacturer's protocol. Briefly, 750 ng of cRNA was hybridized on the array overnight after which the array was washed and blocked. Then, by addition of streptavidin Cy-3 a fluorescent signal was developed. Arrays were scanned on an Illumina iScan reader and raw intensity values were background corrected in GenomeStudio (Illumina). Further data processing and statistical testing were performed with R and Bioconductor statistical software (www.bioconductor.org), using package lumi. Raw intensity values were transformed using variance stabilization and a quantile normalization was performed. A linear modelling approach with empirical Bayesian methods, as implemented in Limma package (54), was applied for differential expression analysis of the resulting probe-level expression values. A gene list, containing only those genes with an absolute 1.5-fold change between different treatments, was uploaded to Ingenuity Pathway Analysis (IPA) software and used for core analysis. Pathways or networks with a p-value of 0.05 were considered statistically significant.

## c1cnc2c(c1)ccc1cccnc12 [PHE, 1, 10-phenanthroline]
ProbeID ILMN_1827736, no gene name printed
  logFC(D142_PHE - D142_BAS): 2,01
ProbeID ILMN_1843198, no gene name printed
  logFC(D142_PHE - D142_BAS): 4,02
ProbeID ILMN_1854469, no gene name printed
  logFC(D142_PHE - D142_BAS): -2,31
ProbeID ILMN_1862909, no gene name printed
  logFC(D142_PHE - D142_BAS): 2,60
ProbeID ILMN_1890614, no gene name printed
  logFC(D142_PHE - D142_BAS): 3,60
ProbeID ILMN_2053415
  logFC(D142_PHE - D142_BAS) LDLR: -2,22
ProbeID ILMN_2054297
  logFC(D142_PHE - D142_BAS) PTGS2: 2,59
ProbeID ILMN_2062701
  logFC(D142_PHE - D142_BAS) GAS1: -2,22
ProbeID ILMN_2103547
  logFC(D142_PHE - D142_BAS) GOLGA8B: 2,29
ProbeID ILMN_2108735
  logFC(D142_PHE - D142_BAS) EEF1A2: 4,24
ProbeID ILMN_2110252, PHE vs BAS
  logFC(D142_PHE - D142_BAS) NPM3: -2,68
ProbeID ILMN_2117508, PHE vs BAS
  logFC(D142_PHE - D142_BAS) CTHRC1: -3,58
ProbeID ILMN_2128795
  logFC(D142_PHE - D142_BAS) LRIG1: 2,70
ProbeID ILMN_2129505
  logFC(D142_PHE - D142_BAS) CYBASC3: -2,00
ProbeID ILMN_2132982
  logFC(D142_PHE - D142_BAS) IGFBP5: 2,36
ProbeID ILMN_2133187
  logFC(D142_PHE - D142_BAS) POL3S: 2,59
ProbeID ILMN_2138765
  logFC(D142_PHE - D142_BAS) PLIN2: 3,41
ProbeID ILMN_2144426
  logFC(D142_PHE - D142_BAS) HIST2H2AA3: 3,65
ProbeID ILMN_2145670, PHE vs BAS
  logFC(D142_PHE - D142_BAS) TNC: -2,96
ProbeID ILMN_2148785, PHE vs BAS
  logFC(D142_PHE - D142_BAS) GBP1: -2,77
ProbeID ILMN_2150851
  logFC(D142_PHE - D142_BAS) SERPINB2: 2,73
ProbeID ILMN_2150856
  logFC(D142_PHE - D142_BAS) SERPINB2: 2,92
ProbeID ILMN_2150894, PHE vs BAS
  logFC(D142_PHE - D142_BAS) ALDH1B1: -3,56
ProbeID ILMN_2157240
  logFC(D142_PHE - D142_BAS) MNS1: -2,02
ProbeID ILMN_2173451
  logFC(D142_PHE - D142_BAS) GPI: 2,47
ProbeID ILMN_2173611
  logFC(D142_PHE - D142_BAS) MT1E: -2,20
ProbeID ILMN_2184373
  logFC(D142_PHE - D142_BAS) IL8: 6,28
ProbeID ILMN_2186061
  logFC(D142_PHE - D142_BAS) PFKFB3: 5,23
ProbeID ILMN_2186137
  logFC(D142_PHE - D142_BAS) RRAD: 3,18
ProbeID ILMN_2188862
  logFC(D142_PHE - D142_BAS) GDF15: 4,56
ProbeID ILMN_2212909
  logFC(D142_PHE - D142_BAS) MELK: -2,05
ProbeID ILMN_2216852
  logFC(D142_PHE - D142_BAS) PGK1: 2,97
ProbeID ILMN_2225537
  logFC(D142_PHE - D142_BAS) PTGR1: 2,90
ProbeID ILMN_2227248
  logFC(D142_PHE - D142_BAS) SLAMF9: 2,67
ProbeID ILMN_2229877, PHE vs BAS
  logFC(D142_PHE - D142_BAS) PCDH18: -2,41
ProbeID ILMN_2234697, PHE vs BAS
  logFC(D142_PHE - D142_BAS) BEX1: -4,70
ProbeID ILMN_2234956, PHE vs BAS
  logFC(D142_PHE - D142_BAS) LEPR: -2,85
ProbeID ILMN_2285996, PHE vs BAS
  logFC(D142_PHE - D142_BAS) KIAA0101: -3,27
ProbeID ILMN_2301083
  logFC(D142_PHE - D142_BAS) UBE2C: -2,20
ProbeID ILMN_2307903, PHE vs BAS
  logFC(D142_PHE - D142_BAS) VCAM1: -5,09
ProbeID ILMN_2308903
  logFC(D142_PHE - D142_BAS) WFDC3: 2,87
ProbeID ILMN_2322375
  logFC(D142_PHE - D142_BAS) MAFF: 3,04
ProbeID ILMN_2322498
  logFC(D142_PHE - D142_BAS) RORA: 2,13
ProbeID ILMN_2324002
  logFC(D142_PHE - D142_BAS) CALD1: -2,11
ProbeID ILMN_2324421
  logFC(D142_PHE - D142_BAS) TXNRD1: 2,30
ProbeID ILMN_2332553
  logFC(D142_PHE - D142_BAS) MSRB3: -2,12
ProbeID ILMN_2337058
  logFC(D142_PHE - D142_BAS) PORCN: 3,30
ProbeID ILMN_2338038
  logFC(D142_PHE - D142_BAS) AK3L1: 2,61
ProbeID ILMN_2342066
  logFC(D142_PHE - D142_BAS) METRNL: 2,12
ProbeID ILMN_2344283
  logFC(D142_PHE - D142_BAS) FMO3: -2,27
ProbeID ILMN_2349459, PHE vs BAS
  logFC(D142_PHE - D142_BAS) BIRC5: -2,71
ProbeID ILMN_2358069
  logFC(D142_PHE - D142_BAS) MAD1L1: 2,09
ProbeID ILMN_2360710
  logFC(D142_PHE - D142_BAS) TPM1: -2,27
ProbeID ILMN_2361862
  logFC(D142_PHE - D142_BAS) VLDLR: 3,53
ProbeID ILMN_2364022
  logFC(D142_PHE - D142_BAS) SLC16A3: 2,29
ProbeID ILMN_2367258
  logFC(D142_PHE - D142_BAS) SMOX: 2,05
ProbeID ILMN_2371458
  logFC(D142_PHE - D142_BAS) CXCR7: 2,54
ProbeID ILMN_2371911
  logFC(D142_PHE - D142_BAS) MUC1: 2,27
ProbeID ILMN_2374865
  logFC(D142_PHE - D142_BAS) ATF3: 2,39
ProbeID ILMN_2375879
  logFC(D142_PHE - D142_BAS) VEGFA: 4,30
ProbeID ILMN_2376953, PHE vs BAS
  logFC(D142_PHE - D142_BAS) KCNK2: -3,27
ProbeID ILMN_2380163
  logFC(D142_PHE - D142_BAS) PTPRF: 2,36
ProbeID ILMN_2380771
  logFC(D142_PHE - D142_BAS) AKR1A1: -2,14
ProbeID ILMN_2381697
  logFC(D142_PHE - D142_BAS) P4HA2: 2,27
ProbeID ILMN_2382942
  logFC(D142_PHE - D142_BAS) CA12: 2,61
ProbeID ILMN_2386444
  logFC(D142_PHE - D142_BAS) ANGPTL4: 3,59
ProbeID ILMN_2388547, PHE vs BAS
  logFC(D142_PHE - D142_BAS) EPSTI1: -2,93
ProbeID ILMN_2390299, PHE vs BAS
  logFC(D142_PHE - D142_BAS) PSMB8: -2,40
ProbeID ILMN_2390338
  logFC(D142_PHE - D142_BAS) UBE2E3: -2,31
ProbeID ILMN_2390919
  logFC(D142_PHE - D142_BAS) FBLN2: -2,30
ProbeID ILMN_2400935, PHE vs BAS
  logFC(D142_PHE - D142_BAS) TAGLN: -3,44
ProbeID ILMN_2401258
  logFC(D142_PHE - D142_BAS) FAM13A: 2,84
ProbeID ILMN_2404135
  logFC(D142_PHE - D142_BAS) RIOK3: 2,47
ProbeID ILMN_2405305
  logFC(D142_PHE - D142_BAS) ARNTL: 2,05
ProbeID ILMN_2413158
  logFC(D142_PHE - D142_BAS) PODXL: 3,57
ProbeID ILMN_3181489
  logFC(D142_PHE - D142_BAS) LOC100130790: 3,33
ProbeID ILMN_3212373
  logFC(D142_PHE - D142_BAS) LOC727803: -2,02
ProbeID ILMN_3228688
  logFC(D142_PHE - D142_BAS) LOC730415: 2,25
ProbeID ILMN_3233930
  logFC(D142_PHE - D142_BAS) LOC390557: 2,45
ProbeID ILMN_3237270
  logFC(D142_PHE - D142_BAS) LOC100133609: 2,75
ProbeID ILMN_3237448
  logFC(D142_PHE - D142_BAS) BEND5: 2,26
ProbeID ILMN_3237511
  logFC(D142_PHE - D142_BAS) C4orf47: 2,24
ProbeID ILMN_3237966
  logFC(D142_PHE - D142_BAS) FBXL11: 2,06
ProbeID ILMN_3239771
  logFC(D142_PHE - D142_BAS) DLGAP5: -2,24
ProbeID ILMN_3242900
  logFC(D142_PHE - D142_BAS) HIST2H2AA4: 3,75
ProbeID ILMN_3245418
  logFC(D142_PHE - D142_BAS) FAM180A: 2,34
ProbeID ILMN_3247132, PHE vs BAS
  logFC(D142_PHE - D142_BAS) LOC730743: -2,35
ProbeID ILMN_3267451
  logFC(D142_PHE - D142_BAS) GAPDHL6: 2,90
ProbeID ILMN_3280402
  logFC(D142_PHE - D142_BAS) LOC100132510: 2,32
ProbeID ILMN_3283772
  logFC(D142_PHE - D142_BAS) LOC644237: 2,73
ProbeID ILMN_3305475
  logFC(D142_PHE - D142_BAS) LOC729708: 2,12
ProbeID ILMN_3305949
  logFC(D142_PHE - D142_BAS) LOC730246: -2,06
ProbeID ILMN_3308961
  logFC(D142_PHE - D142_BAS) MIR1974: 3,51
